Test results published in US20220046923A1, “HERBICIDAL CINNOLINIUM COMPOUNDS” (SYNGENTA CROP PROTECTION AG, priority 2018, published 2022).

Legend:
Test in all cases: Post-emergence efficacy, glasshouse spray test
Type in all cases: in vivo
[1] = test system: Amaranthus palmeri (AMAPA); settings: Amaranthus palmeri, post-emergence, 312 h, evaluated after 13 days, read-out: Control of weed species AMAPA after post-emergence application (100=total damage to plant; 0=no damage to plant); for pest or weed control at 1000 g/ha: application rate 1000 g/Ha; for pest or weed control at 500 g/ha: application rate 500 g/Ha
In short: (§1)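 Compound formulated in acetone/IF50 and diluted into 0.25% or 1% Empicol ESC70 with 1% ammonium sulphate was sprayed on glasshouse seedlings 14 days after sowing. Growth continued at 24/16 °C, 14 h light, 65% humidity with twice-daily watering; damage (0–100) scored on day 13.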

[2] = test system: Chenopodium album (CHEAL); settings: Chenopodium album, post-emergence, 312 h, evaluated after 13 days, read-out: Control of weed species CHEAL after post-emergence application (100=total damage to plant; 0=no damage to plant); for pest or weed control at 1000 g/ha: application rate 1000 g/Ha; for pest or weed control at 500 g/ha: application rate 500 g/Ha
In short: as §1

[3] = test system: Digitaria sanguinalis (DIGSA); settings: Digitaria sanguinalis, post-emergence, 312 h, evaluated after 13 days, read-out: Control of weed species DIGSA after post-emergence application (100=total damage to plant; 0=no damage to plant); for pest or weed control at 1000 g/ha: application rate 1000 g/Ha; for pest or weed control at 500 g/ha: application rate 500 g/Ha
In short: as §1

[4] = test system: Echinochloa crus-galli (ECHCG); settings: Echinochloa crus-galli, post-emergence, 312 h, evaluated after 13 days, read-out: Control of weed species ECHCG after post-emergence application (100=total damage to plant; 0=no damage to plant); for pest or weed control at 1000 g/ha: application rate 1000 g/Ha; for pest or weed control at 500 g/ha: application rate 500 g/Ha
In short: as §1

Eleusine indica (ELEIN) = settings: Eleusine indica, post-emergence, 312 h, evaluated after 13 days, read-out: Control of weed species ELEIN after post-emergence application (100=total damage to plant; 0=no damage to plant); for pest or weed control at 1000 g/ha: application rate 1000 g/Ha; for pest or weed control at 500 g/ha: application rate 500 g/Ha
In short: as §1

[5] = test system: Euphorbia heterophylla (EPHHL); settings: Euphorbia heterophylla, post-emergence, 312 h, evaluated after 13 days, read-out: Control of weed species EPHHL after post-emergence application (100=total damage to plant; 0=no damage to plant); for pest or weed control at 1000 g/ha: application rate 1000 g/Ha; for pest or weed control at 500 g/ha: application rate 500 g/Ha
In short: as §1

[6] = test system: Ipomoea hederacea (IPOHE); settings: Ipomoea hederacea, post-emergence, 312 h, evaluated after 13 days, read-out: Control of weed species IPOHE after post-emergence application (100=total damage to plant; 0=no damage to plant); for pest or weed control at 1000 g/ha: application rate 1000 g/Ha; for pest or weed control at 500 g/ha: application rate 500 g/Ha
In short: as §1

Lolium perenne (LOLPE) = settings: Lolium perenne, post-emergence, 312 h, evaluated after 13 days, read-out: Control of weed species LOLPE after post-emergence application (100=total damage to plant; 0=no damage to plant); for pest or weed control at 1000 g/ha: application rate 1000 g/Ha; for pest or weed control at 500 g/ha: application rate 500 g/Ha
In short: as §1

Setaria faberi (SETFA) = settings: Setaria faberi, post-emergence, 312 h, evaluated after 13 days, read-out: Control of weed species SETFA after post-emergence application (100=total damage to plant; 0=no damage to plant); for pest or weed control at 1000 g/ha: application rate 1000 g/Ha; for pest or weed control at 500 g/ha: application rate 500 g/Ha
In short: as §1

SMILES	pest or weed control at 1000 g/ha [1]	pest or weed control at 1000 g/ha [2]	pest or weed control at 1000 g/ha [3]	pest or weed control at 1000 g/ha [4]	pest or weed control at 1000 g/ha (Eleusine indica (ELEIN))	pest or weed control at 1000 g/ha [5]	pest or weed control at 1000 g/ha [6]	pest or weed control at 1000 g/ha (Lolium perenne (LOLPE))	pest or weed control at 1000 g/ha (Setaria faberi (SETFA))	pest or weed control at 500 g/ha [1]	pest or weed control at 500 g/ha [2]	pest or weed control at 500 g/ha [3]	pest or weed control at 500 g/ha [4]	pest or weed control at 500 g/ha (Eleusine indica (ELEIN))	pest or weed control at 500 g/ha [5]	pest or weed control at 500 g/ha [6]	pest or weed control at 500 g/ha (Lolium perenne (LOLPE))	pest or weed control at 500 g/ha (Setaria faberi (SETFA))
O=S(=O)(O)CC[n+]1ccc2cccc(I)c2n1 [Compound A42, 2-(8-iodocinnolin-2-ium-2-yl)ethanesulfonic acid 2,2,2-trifluoroacetate]	90%	50%	40%	20%	80%	50%	70%	10%	50%	–	–	–	–	–	–	–	–	–
C[C@@H](C[n+]1ccc2ccccc2n1)NS(=O)(=O)[O-] [Compound A45, N-[(1S)-2-cinnolin-2-ium-2-yl-1-methyl-ethyl]sulfamate]	100%	80%	80%	40%	100%	100%	60%	60%	80%	–	–	–	–	–	–	–	–	–
COC(=O)C[n+]1ccc2cccc(C)c2n1 [Compound A58]	0%	30%	0%	10%	10%	20%	10%	0%	0%	–	–	–	–	–	–	–	–	–
C[C@H](C[n+]1ccc2ccccc2n1)NS(=O)(=O)[O-] [Compound A46]	100%	70%	70%	30%	90%	100%	70%	40%	60%	–	–	–	–	–	–	–	–	–
CC(CC[n+]1ccc2ccccc2n1)S(=O)(=O)[O-] (stereo not drawn) [Compound A43, 4-cinnolin-2-ium-2-ylbutane-2-sulfonate]	100%	100%	80%	70%	100%	100%	80%	40%	70%	–	–	–	–	–	–	–	–	–
Cc1ccc2n[n+](CCS(=O)(=O)[O-])ccc2c1 [Compound A32]	90%	90%	70%	80%	90%	90%	70%	30%	60%	–	–	–	–	–	–	–	–	–
O=C(NC(C[n+]1ccc2ccccc2n1)C(=O)O)OCc1ccccc1 (stereo not drawn) [Compound A114]	–	–	–	–	–	–	–	–	–	50%	40%	20%	20%	30%	50%	30%	10%	20%
COC(=O)C[n+]1cc(C)c2ccccc2n1 [Compound A62]	70%	60%	50%	30%	70%	40%	50%	40%	30%	–	–	–	–	–	–	–	–	–
c1ccc2n[n+](Cc3nnn[n-]3)ccc2c1 [Compound A20]	30%	10%	20%	20%	20%	70%	0%	10%	10%	–	–	–	–	–	–	–	–	–
O=S(=O)([O-])CC[n+]1ccc2c(F)cccc2n1 [Compound A81]	40%	70%	20%	20%	30%	90%	10%	20%	20%	–	–	–	–	–	–	–	–	–
CC(C)(C[n+]1ccc2ccccc2n1)C(=O)O [Compound A113, 3-cinnolin-2-ium-2-yl-2,2-dimethyl-propanoic Acid 2,2,2-trifluoroacetate]	–	–	–	–	–	–	–	–	–	10%	10%	30%	40%	30%	10%	10%	20%	20%
OCCC[n+]1ccc2ccccc2n1 [Compound A121]	30%	60%	0%	10%	0%	30%	20%	10%	30%	–	–	–	–	–	–	–	–	–
CNC(=O)c1c[n+](CCS(=O)(=O)[O-])nc2ccccc12 [Compound A13]	–	–	–	–	–	–	–	–	–	40%	50%	50%	50%	30%	20%	20%	20%	60%
COc1ccc2n[n+](CCS(=O)(=O)[O-])ccc2c1 [Compound A37]	0%	0%	60%	50%	60%	20%	10%	20%	40%	–	–	–	–	–	–	–	–	–
Cc1cc(C)c2n[n+](CCO)cc(C)c2c1 [Compound A117]	30%	20%	20%	20%	60%	20%	20%	10%	30%	–	–	–	–	–	–	–	–	–
Cc1cc2ccccc2n[n+]1CCCS(=O)(=O)[O-] [Compound A76]	60%	60%	60%	60%	60%	50%	40%	30%	60%	–	–	–	–	–	–	–	–	–
